Measurements reported in US11786511B2, “Methods for increasing circulating mesenchymal stem cells” (University of Southern California, priority 2017, dated 2023).
Entries after “also recorded” stand apart in the source; their conditions may differ.

Experiments:
Format in all cases: in vivo, C57BL/10ScSn-Dmd^mdx/J)
[1] = system: bone marrow MSCs (CD45 negative, Sca-1, CD29 & CD105 positive); assay: Flow cytometry of bone marrow for CD45 negative cells triply positive for Sca-1, CD29 & CD105, mdx mouse model; settings: mdx mice, 8 mg/kg oral once or twice daily, 6 weeks, vs vehicle treated mdx
Description: (§1) In the mdx mouse model of DMD, 5 week-old wild-type (C57BL/10SnJ) and mdx (C57BL/10ScSn-Dmd^mdx/J) mice were treated for 6 weeks and necropsied. These mice were broken into 4 orally dosed groups: a wild-type group (n=5) dosed twice daily with vehicle, an mdx group (n=8) dosed twice daily with vehicle, an mdx group (n=8) dosed once daily with 8 mg/kg of Compound 7, and an mdx group (n=8) dosed twice daily with 8 mg/kg of Compound 7. The vehicle was a 1% β-cyclodextrin in ˜pH 3 citrate buffer and the treatment 1% β-cyclodextrin in ˜pH 3 citrate buffer with Compound 7. At necropsy, the femur bone marrow was isolated and peripheral blood was harvested. […] CFU-F colonies of ≥50 cells were counted after 8 days in culture. […]
(§2) During the necropsy, the blood was collected by cardiac puncture with a 1 mL syringe fitted with a 22G needle, transferred into 2 ml K3E K3EDTA VACUETTE® tubes, and stored on ice. […] The cell solutions were counted with a Z1 Coulter Counter (Beckman Coulter) and resuspended at 5*10^6 cells/mL. […] The supernatant was then removed, re-suspend in 500 μL 10% neutral buffered formalin, covered with aluminum foil, and stored at 4° C. until analyzed. Samples were then read on a LSR II flow cytometer (BD Biosciences, San Jose, Calif.). Data was analyzed using FlowJo™ V 10.0.7r2.

bone marrow MSCs = assay: Bone marrow CFU-F colony count after 6 weeks oral treatment in the mdx mouse model of DMD; settings: mdx mice, vs vehicle treated mdx
Description: In the mdx mouse model of DMD, 5 week-old wild-type (C57BL/10SnJ) and mdx (C57BL/10ScSn-Dmd^mdx/J) mice were treated for 6 weeks and necropsied. These mice were broken into 4 orally dosed groups: a wild-type group (n=5) dosed twice daily with vehicle, an mdx group (n=8) dosed twice daily with vehicle, an mdx group (n=8) dosed once daily with 8 mg/kg of Compound 7, and an mdx group (n=8) dosed twice daily with 8 mg/kg of Compound 7. The vehicle was a 1% β-cyclodextrin in ˜pH 3 citrate buffer and the treatment 1% β-cyclodextrin in ˜pH 3 citrate buffer with Compound 7. At necropsy, the femur bone marrow was isolated and peripheral blood was harvested. The bone marrow was cultured in Mesencult™ MSC Basal Medium (mouse) supplemented with Mesencult™ MSC Stimulatory Supplement (Stemcell Technologies). CFU-F colonies of ≥50 cells were counted after 8 days in culture.
At necropsy, the femurs were also collected in a 1.5 mL microcentrifuge tube containing ˜800 μL of sterile Dulbecco's phosphate-buffered saline (DPBS) with 2% fetal bovine serum (FBS) and 2× Penicillin (Pen) and 2× Streptomycin (Strep) (DPBS/2% FBS/2× Pen/Strep) and stored on ice. […] The cell solutions were counted with a Z1 Coulter Counter (Beckman Coulter) and resuspended at 5*10^6 cells/mL. […] On day 8, the colonies of ≥50 were counted by light microscopy.

[2] = system: circulating MSCs (CD45 negative, Sca-1, CD29 & CD105 positive); assay: Flow cytometry of peripheral blood for CD45 negative cells triply positive for Sca-1, CD29 & CD105, mdx mouse model; settings: mdx mice, 8 mg/kg oral twice daily, 6 weeks, vs vehicle treated mdx and wild-type
Description: as §1, §2

CCCCOC(=O)NS(=O)(=O)c1ccc(OC(F)(F)F)cc1-c1ccc(Cn2ccnc2)cn1 [Compound 7]
Percentage of CD45 negative cells triply positive for Sca-1, CD29 & CD105 in bone marrow [1]: restored the percentage of these triply positive cells to levels comparable to non-dystrophic controls; also recorded: significantly increased | Bone marrow MSC, CFU-F counts (colonies of ≥50 cells after 8 days in culture) (bone marrow MSCs; 8 mg/kg oral once daily): significantly increased; also recorded: significant increase | Bone marrow MSC, CFU-F counts (colonies of ≥50 cells after 8 days in culture) (bone marrow MSCs; 8 mg/kg oral twice daily): restoring levels comparable to the non-dystrophic controls; also recorded: significant increase | Percentage of CD45 negative cells triply positive for Sca-1, CD29 & CD105 in peripheral blood (circulating MSCs) [2]: significantly higher; also recorded: significant increase
